Laboratory results reported in ChEMBL document CHEMBL1138639, “Carbonic anhydrase inhibitors: inhibition of human cytosolic isozyme II and mitochondrial isozyme V with a series of benzene sulfonamide derivatives” (Bioorg Med Chem Lett, 2004).

Key:
[1] = target: Carbonic anhydrase 5A, mitochondrial (Homo sapiens, UniProt P35218)
Carbonic anhydrase 2 = Carbonic anhydrase 2 (Homo sapiens, UniProt P00918)

Carbonic anhydrase 5A, mitochondrial, sequence (P35218 whole entry): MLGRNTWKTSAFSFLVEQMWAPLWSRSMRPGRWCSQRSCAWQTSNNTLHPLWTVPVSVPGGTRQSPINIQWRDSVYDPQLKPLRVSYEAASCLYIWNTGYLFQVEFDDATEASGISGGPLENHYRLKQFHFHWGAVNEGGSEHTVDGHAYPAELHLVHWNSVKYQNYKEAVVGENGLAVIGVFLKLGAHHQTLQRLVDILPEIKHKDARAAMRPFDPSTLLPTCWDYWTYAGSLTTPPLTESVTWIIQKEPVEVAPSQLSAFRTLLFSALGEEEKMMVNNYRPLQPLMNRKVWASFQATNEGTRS

Structure (SMILES) | IC50 [1] [µM] | IC50 (Carbonic anhydrase 2) [µM]
[H]/N=C(/N)NS(=O)(=O)c1ccc(N)cc1 [SULFAGUANIDINE] | > 100 | > 100
Nc1ccc(S(N)(=O)=O)cc1 [SULFANILAMIDE] | 32 | –
NS(=O)(=O)c1ccc(C(=O)O)cc1 [CARZENIDE] | 2.65 | –
NS(=O)(=O)c1ccc(CCO)cc1 | 17 | –
Cc1ccc(S(N)(=O)=O)cc1 [P-TOLUENESULFONAMIDE] | 4.7 | –
N/C(S)=N/Nc1ccc(S(N)(=O)=O)cc1 | 63.7 | 0.29
Nc1ccc(S(N)(=O)=O)cc1I | 9.4 | –
NS(=O)(=O)c1ccc([N+](=O)[O-])cc1 | 4.2 | 0.4
COC(=O)c1ccccc1S(N)(=O)=O | 53.2 | –
NCCc1ccc(S(N)(=O)=O)cc1 | 42.4 | –
Nc1nccc(Nc2ccc(S(N)(=O)=O)cc2)n1 | 29.9 | –
NNc1ccccc1S(N)(=O)=O | 9.6 | –

The remaining lines, values ahead:

IC50 [1] [µM] | IC50 (Carbonic anhydrase 2) [µM] | Structure (SMILES)
7.4 | – | Nc1ccc(S(N)(=O)=O)cc1Cl
9.3 | – | NS(=O)(=O)c1ccc(CO)cc1
0.78 | 0.41 | NS(=O)(=O)c1cccc([N+](=O)[O-])c1
44.9 | 0.25 | NS(=O)(=O)c1nc2ccc([N+](=O)[O-])cc2s1
9.3 | – | Nc1ccc(S(N)(=O)=O)cc1F
8.6 | 3.6 | N#CSc1ccc(S(N)(=O)=O)cc1
27.6 | – | NCc1ccc(S(N)(=O)=O)cc1 [MAFENIDE]
7.6 | – | Nc1ccc(S(N)(=O)=O)cc1Br
15.3 | – | Nc1ccccc1S(N)(=O)=O
7.7 | – | NNc1ccc(S(N)(=O)=O)cc1
